Experimental data taken from paper PMC6672714 (Frontiers in Physiology, 2019).
Entries after “also recorded” stand apart in the source; their conditions may differ. Like-named read-outs stand apart in the source and are kept apart here. No end group written: not given here.

How the values were obtained:
[1] = test system: cultured chick pituitary cells (GnRH1-induced CART mRNA); type: cell-based, chicken; details: GnRH1 10 nM, 24 h, N = 4
Experimental: (§1) As described in our recent studies ([Huang et al., 2014]; [Mo et al., 2015]), anterior pituitaries collected from 1-week-old chicks were sliced and digested by 0.25% trypsin at 37°C for 20 min. The dispersed pituitary cells were cultured at a density of 5 × 10^5 cells/well in Medium 199 supplemented with 15% fetal bovine serum in a Corning Cell BIND 48-well plates (Corning, Tewksbury, MA) at 37°C with 5% CO2. After 24-h culture, the medium was replaced with serum-free M199 medium and the cells were treated with chicken GnRH1/GnRH2 for the duration (12–48 h) or with increasing doses (0.1–100 nM) of each peptide. The total RNA was then extracted from cultured pituitary cells and the expression of CART and β-actin assayed by qPCR.
“ND” indicates no statistical difference between the two groups. Each data point represents mean ± SEM of four replicates (N = 4). ^**p < 0.01 vs. control; ^#p < 0.01 vs. GnRH1 treatment (in the absence of drug). […] Total ERK2 in cell lysates was also examined and used as internal controls. Note: only a single band for pERK2 or total ERK2 (42 kDa) was detected in cell lysate, because ERK1 gene is lost in chicken genome ([Gerilechaogetu et al., 2009]). The representative sets of independent experimental duplicates are shown here.
“ND” indicates no statistical difference between the two groups. Each data point represents mean ± SEM of four replicates (N = 4). ^**p < 0.01 vs. control. […] The β-actin in cell lysates were also examined and used as internal controls. The representative sets of independent experimental duplicates are shown here.

[2] = test system: intact pituitaries (GnRH1-induced CART secretion); assay: inhibition of GnRH1-induced CART secretion in intact pituitaries, Western blot; type: cell-based, chicken; details: GnRH1 5 nM, 4 h, N = 3
Experimental: (§2) As described in our recent study ([Huang et al., 2014]), the intact anterior pituitaries collected from 1-week-old male chicks were washed with PBS and placed on a 48-well plate (NUNC) supplemented with 400 μl serum-free Medium 199 (Invitrogen). After 1-h incubation at 37°C, the medium was replaced by 300 μl serum-free Medium 199 containing different concentrations of chicken GnRH1 or GnRH2 (0.1–100 nM) and incubated for 4 h.
One representative set of Western blotting is shown at the bottom.

chicken GnRHR2 [3] = assay: three cell-based luciferase reporter assays, GnRHR2 (qualitative)
Excerpt: (§3) Based on the reported cDNA sequences of chicken GnRHR1 and GnRHR2 (accession nos.: NM_204653; NM_001012609) ([Sun et al., 2001]; [Shimizu and Bedecarrats, 2006]), gene-specific primers were used to amplify the open reading frame from adult chicken anterior pituitaries using high-fidelity Taq DNA polymerase (TOYOBO, Japan). The amplified PCR products were cloned into the pcDNA3.1 (+) expression vector (Invitrogen) and sequenced. According to our previously established methods, the signaling property of each receptor was examined in Chinese hamster ovary (CHO) cells using pGL3-NFAT-RE-luciferase ([Wang et al., 2012]), pGL4-SRE-luciferase ([Mo et al., 2015]), and pGL3-CRE-luciferase reporter systems ([Wang et al., 2007]).
(§4) Although two GnRH receptors (GnRHR1 and GnRHR2) have been identified in chickens ([Sun et al., 2001]; [Shimizu and Bedecarrats, 2006]; [Joseph et al., 2009]), their downstream signaling pathways have not been fully characterized.
(§5) Figure 5 Activation of chicken GnRHR1 or GnRHR2 expressed in CHO cells by chicken GnRH1 or GnRH2, monitored by pGL3-NFAT-RE-luciferase (A,D), pGL4-SRE-luciferase (B,E), and pGL3-CRE-luciferease (C,F) reporter systems. […] Each data point represents mean ± SEM of four replicates (N = 4).

chicken GnRHR2 [4] = assay: pGL3-NFAT-RE-luciferase reporter, calcium signaling pathway, CHO cells expressing chicken GnRHR2; type: cell-based; details: four replicates
Excerpt: as §3, §4, §5

chicken GnRHR2 [5] = assay: pGL4-SRE-luciferase reporter, MAPK/ERK signaling pathway, CHO cells expressing chicken GnRHR2; type: cell-based; details: four replicates
Excerpt: as §3, §4, §5

chicken GnRHR1 [6] = assay: three cell-based luciferase reporter assays, GnRHR1 (qualitative); details: GnRHR1, CHO cells, calcium, MAPK/ERK and cAMP/PKA reporters
Excerpt: as §3, §4, §5

chicken GnRHR1 [7] = assay: pGL4-SRE-luciferase reporter, MAPK/ERK signaling pathway, CHO cells expressing chicken GnRHR1; type: cell-based; details: four replicates
Excerpt: as §3, §4, §5

chicken GnRHR2 [8] = assay: pGL3-CRE-luciferase reporter, cAMP/PKA signaling pathway, CHO cells expressing chicken GnRHR2; type: cell-based; details: four replicates
Excerpt: as §3, §4, §5

chicken GnRHR1 [9] = assay: pGL3-NFAT-RE-luciferase reporter, calcium signaling pathway, CHO cells expressing chicken GnRHR1; type: cell-based; details: four replicates
Excerpt: as §3, §4, §5

[10] = test system: cultured chick pituitary cells (CART mRNA); assay: CART mRNA expression in cultured chick pituitary cells, qPCR; type: cell-based, chicken; details: N = 4
Excerpt: Chicken anterior pituitaries were collected either for cell culture, or for total RNA extraction. Total RNA was extracted from chicken tissues or cultured pituitary cells using RNAzol (Molecular Research Center, Cincinnati, OH) and reversely transcribed using M-MLV reverse transcriptase (TaKaRa). Reverse transcription (RT) samples were then used for quantitative real-time PCR (qPCR) assays to investigate the mRNA expression of target genes, as described in our recent studies ([Cai et al., 2015]; [Mo et al., 2015]).
as §1
The data were analyzed by the Student’s t-test (between two groups) or by one-way ANOVA followed by the Dunnett test in GraphPad Prism 5 (GraphPad Software, San Diego, CA). To validate our results, all experiments were repeated at least three times.
The mRNA levels of CART were normalized by β-actin and expressed as the percentage of respective controls. Each value represents the mean ± SEM of four replicates (N = 4). ^*p < 0.05, ^**p < 0.01 vs. respective control. (E) RT-PCR detection of GnRHR2 expression in cultured chick pituitary cells (three replicates). RT was performed in the presence (+) or absence (−) of reverse transcriptase. Parallel PCR of β-actin was performed to serve as an internal control.

chicken GnRHR1 [11] = assay: pGL3-CRE-luciferase reporter, cAMP/PKA signaling pathway, CHO cells expressing chicken GnRHR1; type: cell-based; details: four replicates
Excerpt: as §3, §4, §5

[12] = test system: intact anterior pituitaries (CART secretion); assay: CART peptide secretion from intact anterior pituitaries incubated in vitro, Western blot; type: cell-based, chicken; details: 4 h, intact chick pituitaries, N = 3
Experimental: as §2, with “h. […] Parallel blotting of β-actin and CART in pituitary tissue lysates was also conducted.” for “h.”
The intracellular CART (iCART) and β-actin levels in the pituitary tissue lysate were also examined in parallel. […] Each data point represents mean ± SEM of three replicates (N = 3). ^*p < 0.05; ^**p < 0.01 vs. respective control. […] One representative set of Western blot is shown at the top of each graph.

With COc1cccc(-c2cc(=O)c3ccccc3o2)c1N [PD98059] the “effect on GnRH1-induced CART mRNA expression” value ([1]; PD98059 100 μM) was “could inhibit GnRH1-induced CART mRNA expression”.
In the case of NCCOB(c1ccccc1)c1ccccc1 [2-APB, 2-aminoethoxydiphenyl borate], the “effect on GnRH1-induced CART secretion” value ([2]; 2-APB 100 μM) is reported as “significantly inhibited”.
COC(=O)C1=C(C)NC(C)=C(C(=O)OC)C1c1ccccc1[N+](=O)[O-] [nifedipine] was tested, and the “effect on GnRH1-induced CART secretion” value ([2]; nifedipine 5 μM) was “significantly inhibited” and the “effect on GnRH1-induced CART mRNA expression” value ([1]; nifedipine 5 μM) was “could inhibit GnRH1-induced CART mRNA expression”.
“GnRH2: chicken gonadotropin-releasing hormone 2, synthesized using solid-phase Fmoc chemistry (QHWSHGWYPG; not fully specified; ends and bridges not checked; UniProt P68072 1-10, looked up)” was tested, and the “relative potency at GnRHR2” value (chicken GnRHR2 [3]; GnRH2 compared with GnRH1, GnRHR2, CHO cells) was “slightly more potent than GnRH1”, the “activation of GnRHR2 (luciferase activity)” value (chicken GnRHR2 [3]; GnRHR2, CHO cells, calcium, MAPK/ERK and cAMP/PKA reporters) was “stimulate the luciferase activities dose-dependently; also recorded: potently activated by both GnRH1 and GnRH2” and the EC50 (chicken GnRHR2 [4]) was 0.26 nM. For the same compound, the EC50 (chicken GnRHR2 [5]) was 2.84 nM, the “activation of GnRHR1 (luciferase activity)” value (chicken GnRHR1 [6]) was “stimulate the luciferase activities dose-dependently; also recorded: potently activated by GnRH2” and the EC50 (chicken GnRHR1 [7]) was 3.1 nM. The EC50 (chicken GnRHR2 [8]) was 0.27 nM, the EC50 (chicken GnRHR1 [9]) was 0.39 nM and the “effect on CART mRNA expression, time and dose dependence” value ([10]; 10 nM time course or 0–100 nM for 48 h, qPCR) was “induce CART expression in time- and dose-dependent manners”. The EC50 (chicken GnRHR1 [11]) was 0.69 nM, the “secretion of mature CART peptide” value ([12]; 0–100 nM) was “potently stimulated the secretion of mature CART peptide” and the “minimal effective concentration, CART secretion” value [12] was 1 nM.
For CN([C@@H](Cc1ccc(OS(=O)(=O)c2cccc3cnccc23)cc1)C(=O)N1CCN(c2ccccc2)CC1)S(=O)(=O)c1cccc2cnccc12 [KN62], the “effect on GnRH1-induced CART mRNA expression” value ([1]; KN62 5 μM) was “could inhibit GnRH1-induced CART mRNA expression”.
For C/C=C(/C)C(=O)O[C@H]1C(C)=C2[C@H]([C@@H]1OC(=O)CCCCCCC)[C@@](C)(OC(C)=O)C[C@H](OC(=O)CCC)[C@@]1(O)[C@H]2OC(=O)[C@@]1(C)O [thapsigargin], the “effect on GnRH1-induced CART mRNA expression” value ([1]; thapsigargin 100 nM) was “could inhibit GnRH1-induced CART mRNA expression”.
With COc1c(C[C@@H](C)OC(=O)Oc2ccc(O)cc2)c2c3c(C[C@@H](C)OC(=O)c4ccccc4)c(OC)c(=O)c4c(O)cc(OC)c(c5c(OC)cc(O)c(c1=O)c52)c43 [calphostin C] the “effect on GnRH1-induced CART mRNA expression” value ([1]; calphostin C 200 nM) was “could inhibit GnRH1-induced CART mRNA expression”.
Cl.c1ccc(C2CCCC2NC2=NCCCCCCCCCCC2)cc1 (stereo not drawn) [MDL12330A] was tested, and the “effect on GnRH1-induced CART mRNA expression” value ([1]; MDL12330A 20 μM) was “could abolish GnRH1-induced CART expression”.
For Clc1ccc(C(c2ccc(Cl)cc2)n2cc[n+](CC(OCc3ccc(Cl)cc3Cl)c3ccc(Cl)cc3Cl)c2)cc1 (stereo not drawn) [calmidazolium], the “effect on GnRH1-induced CART mRNA expression” value ([1]; calmidazolium 1 μM) was “could inhibit GnRH1-induced CART mRNA expression”.
In the case of COc1ccc2c(c1)CC[C@@H]1[C@@H]2CC[C@]2(C)[C@@H](NCCCCCCN3C(=O)C=CC3=O)CC[C@@H]12 [U73122], the “effect on GnRH1-induced CART secretion” value ([2]; U73122 20 μM) is reported as “significantly inhibited” and the “effect on GnRH1-induced CART mRNA expression” value ([1]; U73122 20 μM) is reported as “could inhibit GnRH1-induced CART mRNA expression”.
For C=C[C@@]1(C)CC(=O)[C@]2(O)[C@@]3(C)[C@@H](O)CCC(C)(C)[C@@H]3[C@H](O)[C@H](OC(C)=O)[C@@]2(C)O1 [forskolin, reference compound], the “effect on CART mRNA expression” value ([10]; forskolin 2 μM, 24 h) was “could mimic GnRH1 action on CART expression”.
